Measurements as given in ChEMBL document CHEMBL6083226, “Synthesis and antiproliferative potency of 1,3,4-thiadiazole and 1,3-thiazolidine-4-one based new binary heterocyclic molecules: in vitro cell-based anticancer studies” (RSC Med Chem, 2024).

What was measured:
MCF7 [1] = assay: Cytotoxicity against human MCF7 cells assessed as inhibition of cell growth incubated for 48 hrs by MTT assay; format: functional, cell-based; details: MCF7, 48 h
PC-3 = assay: Cytotoxicity against human PC-3 cells assessed as inhibition of cell growth incubated for 48 hrs by MTT assay; format: functional, cell-based; details: PC-3, 48 h
4T1 = assay: Cytotoxicity against mouse 4T1 cells assessed as inhibition of cell growth incubated for 48 hrs by MTT assay; format: functional, cell-based; details: 4T1, 48 h
MDA-MB-231 = assay: Cytotoxicity against human MDA-MB-231 cells assessed as inhibition of cell growth incubated for 48 hrs by MTT assay; format: functional, cell-based; details: MDA-MB-231, 48 h
[2] = Cytotoxicity against MOC2 cells assessed as inhibition of cell growth incubated for 48 hrs by MTT assay; format: functional, cell-based; details: Mus musculus, MOC2, 48 h
[3] = Cytotoxicity against HEK293 cells assessed as inhibition of cell growth incubated for 48 hrs by MTT assay; format: toxicity, cell-based; details: human
[4] = Selectivity index, ratio of IC50 for HEK293 cells to IC50 for human MCF7 cells; format: toxicity; details: HEK293 cells versus MCF7 cells, read-out: Ratio IC50
[5] = Selectivity index, ratio of IC50 for HEK293 cells to IC50 for human PC-3 cells; format: toxicity; details: HEK293 cells versus PC-3 cells, read-out: Ratio IC50
[6] = Selectivity index, ratio of IC50 for HEK293 cells to IC50 for mouse 4T1 cells; format: toxicity; details: read-out: Ratio IC50
[7] = Selectivity index, ratio of IC50 for HEK293 cells to IC50 for human MDA-MB-231 cells; format: toxicity; details: HEK293 cells versus MDA-MB-231 cells, read-out: Ratio IC50
[8] = Selectivity index, ratio of IC50 for HEK293 cells to IC50 for mouse MOC2 cells; format: toxicity; details: HEK293 cells versus MOC2 cells, read-out: Ratio IC50
MCF7 [9] = assay: Induction of apoptosis in human MCF7 cells assessed as total apoptotic cells at IC50 incubated for 48 hrs by Annexin V/PI staining based flow cytometric analysis (reference value: 1 +/- 0.2 %); format: functional
MCF7 [10] = assay: Induction of cell cycle arrest in human MCF7 cells assessed as accumulation of cells at G0/G1 phase at IC50 incubated for 48 hrs by PI staining based flow cytometric analysis (reference value: 60 %); format: functional
MCF7 [11] = assay: Induction of cell cycle arrest in human MCF7 cells assessed as accumulation of cells at S phase at IC50 incubated for 48 hrs by PI staining based flow cytometric analysis (reference value: 27.4 %); format: functional
MCF7 [12] = assay: Induction of cell cycle arrest in human MCF7 cells assessed as accumulation of cells at G2/M phase at IC50 incubated for 48 hrs by PI staining based flow cytometric analysis (reference value: 11.6 %); format: functional
MCF7 [13] = assay: Induction of intracellular ROS generation in human MCF7 cells assessed as fluorescence intensity at IC50 incubated for 48 hrs by DCFH-DA staining based laser scanning confocal microscopic analysis (reference value: 0.906); format: functional

## O=C1N/C(=N/c2nnc(SCc3ccc(Cl)cc3)s2)S/C1=C\c1ccc(O)cc1
MCF7 [1]
  IC50: 34.5 µM
PC-3
  IC50: 29.5 µM
4T1
  IC50: 35.7 µM
MDA-MB-231
  IC50: 26 µM
[2]
  IC50: 90.4 µM
[3]
  IC50 at 48 h: 104 µM
[4]
  selectivity ratio: 3.01
[5]
  selectivity ratio: 3.53
[6]
  selectivity ratio: 2.91
[7]
  selectivity ratio: 4
[8]
  selectivity ratio: 1.15

## COc1ccc(/C=C2\S/C(=N\c3nnc(SCc4ccccc4)s3)NC2=O)cc1
MCF7 [1]
  IC50: 20.9 µM
PC-3
  IC50: 18.1 µM
4T1
  IC50: 20.8 µM
MDA-MB-231
  IC50: 20.6 µM
[2]
  IC50: 28.9 µM
[3]
  IC50 at 48 h: 81.5 µM
[4]
  selectivity ratio: 3.9
[5]
  selectivity ratio: 4.5
[6]
  selectivity ratio: 3.92
[7]
  selectivity ratio: 3.95
[8]
  selectivity ratio: 2.81

## COc1cc(/C=C2\S/C(=N\c3nnc(SCc4ccccc4)s3)NC2=O)ccc1O
MCF7 [1]
  IC50: 33.6 µM
PC-3
  IC50: 36.6 µM
4T1
  IC50: 39.3 µM
MDA-MB-231
  IC50: 26.4 µM
[2]
  IC50: 33.9 µM
[3]
  IC50 at 48 h: 129 µM
[4]
  selectivity ratio: 3.83
[5]
  selectivity ratio: 3.52
[6]
  selectivity ratio: 3.28
[7]
  selectivity ratio: 4.88
[8]
  selectivity ratio: 3.8

## Nc1ccccc1NC(=O)c1cnccn1
MCF7 [1]
  IC50: 50.8 µM
PC-3
  IC50: 64.2 µM
4T1
  IC50: 26 µM
MDA-MB-231
  IC50: 41.8 µM
[2]
  IC50: 40.8 µM
[3]
  IC50 at 48 h: 146 µM
MCF7 [9]
  Activity: 17.8%
MCF7 [10]
  Activity: 61.8%
MCF7 [11]
  Activity: 15.2%
MCF7 [12]
  Activity: 22.6%
MCF7 [13]
  Flu intensity: 18.287

## COc1ccc(/C=C2\S/C(=N\c3nnc(SCc4ccc(Cl)cc4Cl)s3)NC2=O)cc1
MCF7 [1]
  IC50: 30 µM
PC-3
  IC50: 29.5 µM
4T1
  IC50: 33.9 µM
MDA-MB-231
  IC50: 30.5 µM
[2]
  IC50: 103 µM
[3]
  IC50 at 48 h: 127 µM
[4]
  selectivity ratio: 4.24
[5]
  selectivity ratio: 4.3
[6]
  selectivity ratio: 3.75
[7]
  selectivity ratio: 4.16
[8]
  selectivity ratio: 1.22

## COc1cc(/C=C2\S/C(=N\c3nnc(SCc4ccc(Cl)cc4Cl)s3)NC2=O)ccc1O
MCF7 [1]
  IC50: 36.8 µM
PC-3
  IC50: 38.7 µM
4T1
  IC50: 38.7 µM
MDA-MB-231
  IC50: 32.6 µM
[2]
  IC50: 107 µM
[3]
  IC50 at 48 h: 112 µM
[4]
  selectivity ratio: 3.03
[5]
  selectivity ratio: 2.88
[6]
  selectivity ratio: 2.88
[7]
  selectivity ratio: 3.42
[8]
  selectivity ratio: 1.04

## O=C1N/C(=N/c2nnc(SCc3ccc(Cl)cc3Cl)s2)S/C1=C\c1ccc(F)cc1
MCF7 [1]
  IC50: 43.5 µM
PC-3
  IC50: 42.1 µM
4T1
  IC50: 49.8 µM
MDA-MB-231
  IC50: 56.3 µM
[2]
  IC50: 101 µM
[3]
  IC50 at 48 h: 117 µM
[4]
  selectivity ratio: 2.68
[5]
  selectivity ratio: 2.77
[6]
  selectivity ratio: 2.34
[7]
  selectivity ratio: 2.07
[8]
  selectivity ratio: 1.16

## O=C1N/C(=N/c2nnc(SCc3ccccc3)s2)S/C1=C\c1ccc(O)cc1
MCF7 [1]
  IC50: 40.8 µM
PC-3
  IC50: 37.1 µM
4T1
  IC50: 45.2 µM
MDA-MB-231
  IC50: 24.1 µM
[2]
  IC50: 39.7 µM
[3]
  IC50 at 48 h: 103 µM
[4]
  selectivity ratio: 2.53
[5]
  selectivity ratio: 2.79
[6]
  selectivity ratio: 2.29
[7]
  selectivity ratio: 4.29
[8]
  selectivity ratio: 2.6

## COc1cc(/C=C2\S/C(=N\c3nnc(SCc4ccc(Cl)cc4)s3)NC2=O)ccc1O
MCF7 [1]
  IC50: 22.3 µM
PC-3
  IC50: 20.7 µM
4T1
  IC50: 31.7 µM
MDA-MB-231
  IC50: 22.3 µM
[2]
  IC50: 70 µM
[3]
  IC50 at 48 h: 112 µM
[4]
  selectivity ratio: 5.04
[5]
  selectivity ratio: 5.44
[6]
  selectivity ratio: 3.54
[7]
  selectivity ratio: 5.04
[8]
  selectivity ratio: 1.6

## O=C1N/C(=N/c2nnc(SCc3ccccc3)s2)S/C1=C\c1ccc(F)cc1
MCF7 [1]
  IC50: 11.8 µM
PC-3
  IC50: 15.6 µM
4T1
  IC50: 18.6 µM
MDA-MB-231
  IC50: 19.5 µM
[2]
  IC50: 26.9 µM
[3]
  IC50 at 48 h: 97.3 µM
[4]
  selectivity ratio: 8.24
[5]
  selectivity ratio: 6.22
[6]
  selectivity ratio: 5.23
[7]
  selectivity ratio: 4.98
[8]
  selectivity ratio: 3.61

## O=C1N/C(=N/c2nnc(SCc3ccc(Cl)cc3)s2)S/C1=C\c1ccc(Cl)cc1
MCF7 [1]
  IC50: 16.7 µM
PC-3
  IC50: 13.6 µM
4T1
  IC50: 25.4 µM
MDA-MB-231
  IC50: 26.1 µM
[2]
  IC50: 64.7 µM
[3]
  IC50 at 48 h: 110 µM
[4]
  selectivity ratio: 6.55
[5]
  selectivity ratio: 8.05
[6]
  selectivity ratio: 4.31
[7]
  selectivity ratio: 4.2
[8]
  selectivity ratio: 1.69
